In one assay the test system is BRCA1-IRIS and survivin. Description: IHC of SKOV3 tumors for BRCA1-IRIS and survivin. It is filed as in vivo, mice. As to conditions: SKOV3 tumors after treatment. An excerpt:
Isolated tumors were mounted, sectioned and IHC stained for BRCA1-IRIS and survivin. […] It is possible that SKOV3 contain a heterogeneous population of cells that differ in their BRCA1-IRIS expression and thus that the remaining tumors are from those expressing no or low BRCA1-IRIS.
Immunohistochemistry (IHC). Ovarian tissue microarrays comprised of normal, cancer and metastatic tissues were purchased from US Biomax, Inc. Paraffin-embedded tissue sections were de-waxed in xylene and rehydrated in alcohol. Antigen-retrieval for FOXO3a and survivin was performed by heating the slides in citrate buffer (10 μM, pH 6.0) using microwave for 10 minutes. Slides were then cooled to room temperature (RT) and washed with water followed by PBS for 15 minutes each. Antigen-retrieval for BRCA1-IRIS was performed by incubating the slides in pepsin (10 μM) for 20 minutes at 37° C. Endogenous peroxidase activity was suppressed by treating the slides with 3% hydrogen peroxide for 10 minutes. After washing steps slides were incubated for 1 hour at room temperature with antibodies to human FOXO3a (Cell Signaling Technology, USA 1:400) and survivin (Cell Signaling Technology, USA 1:400). For BRCA1-IRIS staining, slides were incubated overnight at 4° C. with monoclonal BRCA1-IRIS antibody at a 1:75 dilution. […]

The test system of a further assay is MDA-MB-231 cells. As to conditions: 48 h.

The record followed here is patent US9303069B2, “Peptides for treating cancer” (University of Mississippi Medical Center, priority 2014, dated 2016).

Ends that are not written are not given here.

Procedure for MDA-MB-231 cells: All cell lines were exposed to increasing concentrations of paclitaxel and BRCA1-IRIS expression, and cells' viability was then measured.
Stable clones were then exposed to 0, 10 or 20 μM of EGFR (Erlotinib), ErbB2 (CP-724714), PI3′K/AKT (LY294002), p38 (SB203580), ERK (PD98059) or JNK (SP600125) inhibitors for 24 hours.
First, to assess the effect of this IRIS peptide, equal numbers of HME, HME/IRIS, MDA-MB-231, MDA-MB-468 and BT549 cells were exposed to increasing concentrations of scrambled or IRIS peptide for 48 hours.
Cell viability under different experimental conditions was determined using the MTS assay. Briefly, cells (2.5×10^4 cells per well) were seeded in 96-well plates and incubated overnight at 37° C. in 10% humidified CO2 atmosphere. The next day they were incubated with varying concentration of peptide, or inhibitors for 24 hours at 37° C. Cell viability was determined using cell Titer 96® Aqueous (Promega, Madison, Wis., USA) following manufacturer's instructions. Cell viability (%) was expressed as a ratio of treated cells to control cells×100. Growth inhibition was also determined by manually counting cells in five different microscopic fields. Change in cell numbers (fold) was expressed as a ratio of the means of these recording of treated cells compared to control cells×100. Each experiment was done in triplicate, repeated three separate times.

By IC50 is commonly meant the midpoint of a concentration-inhibition curve. The low end stands for higher potency, the high end for lower potency. As for “RRIRPRPPRLPRPRPRPLPFPRPGIGTRFLCLPQSIYRSELNVYAFGEHILQISKYS [IRIS peptide]”, the “BRCA1-IRIS and survivin staining of remaining tumor” value with BRCA1-IRIS and survivin is “almost complete absence of BRCA1-IRIS and survivin staining”. In addition, the IC50 in the assay with MDA-MB-231 cells was around 5 µM.
